These results are taken from patent publication US10906946B2, “Thrombin inhibitors” (priority 2015, dated 2021).

Peptide text beside a SMILES is read from it.

One experiment has as its target T1, thrombin (Homo sapiens, UniProt P00734).
T1 construct: residues in the termini of the light chain; and in the autolysis loop and C-terminus of the heavy chain; purchased Chemo-Sero-Therapeutic Research Institute (Kaketsuken, Japan), as a gift, not bought
Put plainly: Cleavage of peptide by thrombin (RP-HPLC, ESI-MS). The class given is biochemical. The note with it: peptide incubated with thrombin (30:1). As to the method:
A. Evaluation of avathrin cleavage by thrombin by HPLC chromatograms. Avathrin (150 μM) was incubated with thrombin (5 μM) for various times and the reaction mixtures were separated using RP-HPLC; the masses of the cleavage products were analyzed with ESI-MS. At 0 min (upper panel), a single peak corresponding to full length avathrin (mass 3139 Da) was identified. At 120 min (middle panel), two new peaks corresponding to N-terminal cleavage product (^1[…]^10 of SEQ ID NO: 1; mass 982 Da) and C-terminal cleavage product ([…] (SEQ ID NO: 4); mass 2176 Da) were identified in addition to avathrin peak. At 600 min (lower panel), two peaks corresponding to the N- and C-terminal cleaved products were observed while avathrin peak was not observed, indicating complete cleavage. B. Time-dependent cleavage of avathrin by thrombin. Relative percentages of avathrin, its N- and C-terminal cleavage products were quantified by calculating areas under the curve. Each data point is the mean±S.D. of at least three independent experiments. C. Effect of thrombin cleavage on inhibitory properties of avathrin. Avathrin was incubated with thrombin (0.81 nM) for up to 36 h, and assayed at different time points for its ability to inhibit thrombin amidolytic activity on the chromogenic substrate S2238. […]
Thrombin amidolytic activity assays for all peptides were performed in 96-wells microtiter plates in 50 mM Tris buffer (pH 7.4) containing 100 mM NaCl and 1 mg/ml bovine serum albumin. […] The rates of formation of p-nitroaniline were followed by measuring the absorbance at 405 nm for 10 min with a Tecan InfinitePro M200 microplate reader from Tecan (Männedorf, Switzerland). […] To measure the inhibitory constants, different concentrations of S2238 were used and the residual velocities were determined using the Morrison's tight binding equation. Inhibition of thrombin fibrinogenolytic activity of peptides were tested by measuring absorbance at 650 nm using a Sunrise microplate reader from Tecan (Männedorf, Switzerland) as described previously [Koh C Y, et al., J Biol Chem 282: 29101-13 (2007)]. […] Effects of avathrin on the amidolytic activities of these serine proteases were determined using respective chromogenic substrates. […] After different incubation times, reactions were quenched with 1% TFA (pH 1.8) and loaded onto a Jupiter Proteo column (4 μm, 90 Å, 100×1.0 mm) attached to a Dionex nano-HPLC system from Thermo Fisher Scientific (Waltham, Mass., USA) and eluted using an acetonitrile gradient with 0.05% TFA and 99.95% MilliQ water as eluent A and 0.05% TFA, 19.95% MilliQ water and 80% ACN as eluent B. Masses of all peaks were measured to identify cleavage products, which were subsequently quantified by integrating the peaks and calculating the area under the curves. […]

A further experiment deals with T2, human α-thrombin (Homo sapiens, UniProt P00734).
T2 construct: residues in the termini of the light chain; purchased Chemo-Sero-Therapeutic Research Institute (Kaketsuken, Japan), as a gift, not bought
Put plainly: Thrombin amidolytic activity assay with chromogenic substrate S2238. In kind it is biochemical. Summed up: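 Run in 50 mM Tris pH 7.4, 100 mM NaCl, 1 mg/ml BSA; p-nitroaniline release from S2238 monitored at 405 nm for 10 min. IC50 and Hill coefficients from dose-response fits; inhibition constants from varied S2238 concentrations using Morrison tight-binding equation.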

For experiment [1], the system named is platelets (ADP-induced platelet aggregation). Put plainly: Preservation of platelet function in blood tubes (Multiplate, ADP-induced platelet aggregation). In kind it is cell-based, human (healthy volunteers). The note with it: ADP agonist. As to the method: (§1) Individual peptides are dissolved in phosphate buffered saline to prepare 10× peptide solutions (ie. concentrations of peptides are 10 times higher than the final concentrations at which they are to be tested). 0.3 ml of the 10× peptide solutions are placed in blood tubes without any additives. Blood was drawn from healthy volunteers using syringes and immediately transferred to a 50 ml conical centrifuge tube (Falcon tube) before pipetting 2.7 ml of the blood into blood tubes with peptide solutions. Final concentrations of peptides are as stated in Table 5 and 6.
Blood tubes with various peptides at different concentrations were left standing at room temperature until tested at designated times. At different time points, tubes were inverted several times and blood samples were taken out for platelet aggregation tests using a Multiplate® Platelet aggregometer with adenosine diphosphate (ADP) as agonist according to manufacturer's recommended protocols.

Another experiment deals with blood. Put plainly: Anti-coagulation effect of peptides in blood tubes (visual clot formation). On the set-up: species or system human (healthy volunteers). The note with it: room temperature. As to the method:
as §1
Blood tubes with various peptides at different concentrations were left standing at room temperature until tested at designated times. At different time points, tubes were inverted several times and visually inspected for insoluble materials as indications of clot formation.

In the case of `CC[C@H](C)[C@H](NC(=O)[C@H](CCCNC(=N)N)NC(=O)[C@@H]1CCCN1C(=O)[C@@H](NC(=O)[C@H](C)NC(=O)[C@@H](NC(=O)[C@H](CCC(N)=O)NC(=O)[C@H](Cc1c[nH]cn1)NC(=O)CNC(=O)CNC(=O)[C@@H](N)CO)[C@@H](C)O)C(C)C)C(=O)N[C@@H](CO)C(=O)N[C@@H](CCCCN)C(=O)N[C@@H](CCC(N)=O)C(=O)NCC(=O)N[C@@H](CC(C)C)C(=O)NCC(=O)NCC(=O)N[C@@H](CC(=O)O)C(=O)N[C@@H](Cc1ccccc1)C(=O)N[C@@H](CCC(=O)O)C(=O)N[C@@H](CCC(=O)O)C(=O)N[C@H](C(=O)N1CCC[C@H]1C(=O)N[C@@H](CO)C(=O)N[C@@H](CC(=O)O)C(=O)N[C@@H](CCC(=O)O)C(=O)N[C@H](C(=O)N[C@H](C(=O)N[C@@H](CCC(=O)O)C(=O)O)[C@@H](C)CC)[C@@H](C)CC)[C@@H](C)CC` [Peptide K10R] (H-SGGHQTAVPRISKQGLGGDFEEIPSDEIIE-OH; N-terminus and C-terminus assumed), the “time to complete cleavage by thrombin” value on thrombin (listed as K10β-avathrin) was determined as 3 h. Moreover, the “fold gain in activity compared with avathrin” value on human α-thrombin is reported as 5 fold. In addition, at human α-thrombin (0 min pre-incubation where stated), the “Hill slope of thrombin amidolytic inhibition” value is recorded as 1.10±0.01. In addition, it took 1.15 ± 0.45 nM to reach half-maximal inhibition on human α-thrombin (IC50 of inhibition of thrombin amidolytic activity, thrombin 0.81 nM, S2238 100 μM, without pre-incubation (0 min) where stated) (IC50). For the same compound, at human α-thrombin (Table 2), the “Hill Slope” value is 1.10 ± 0.01.

For `CC[C@H](C)[C@H](NC(=O)[C@H](C)NC(=O)[C@H](CCC(=O)O)NC(=O)[C@H](Cc1ccccc1)NC(=O)[C@H](CC(=O)O)NC(=O)[C@H](Cc1ccccc1)NC(=O)[C@@H]1CCCN1C(=O)[C@@H]1CCCN1C(=O)[C@H](C)NC(=O)[C@@H](NC(=O)[C@H](CCCCN)NC(=O)[C@H](Cc1c[nH]cn1)NC(=O)[C@H](CCSC)NC(=O)[C@H](CCCCN)NC(=O)[C@@H]1CCCN1C(=O)[C@H](CCC(=O)O)NC(=O)[C@H](C)NC(=O)[C@@H](NC(=O)[C@H](CC(=O)O)NC(=O)CNC(=O)[C@H](CCC(N)=O)NC(=O)[C@H](CC(=O)O)NC(=O)[C@@H](N)CO)C(C)C)[C@@H](C)O)C(=O)N1CCC[C@H]1C(=O)N[C@@H](CCC(=O)O)C(=O)N[C@@H](CCC(=O)O)C(=O)N[C@@H](Cc1ccc(O)cc1)C(=O)N[C@@H](CC(C)C)C(=O)N[C@@H](CC(=O)O)C(=O)N[C@@H](CC(=O)O)C(=O)N[C@@H](CCC(=O)O)C(=O)N[C@@H](CO)C(=O)O` [Variegin, reference compound], the “Multiplate AUC (U)” value is 65.2 U in experiment [1] (1.5 h, peptide 150 μM); 52.3 U in experiment [1] (1.5 h, peptide 300 μM); 48.6 U in experiment [1] (4 h, peptide 150 μM); 33.9 U in experiment [1] (4 h, peptide 300 μM); 41.9 U in experiment [1] (24 h, peptide 150 μM); 40.5 U in experiment [1] (24 h, peptide 300 μM). Also, the “Multiplate AUC (U)” value in experiment [1] (48 h, peptide 300 μM) is on record as 18.3 U. Besides, the “Time to observe clot formation” value with blood (final concentration 75 micromolar) is 46 h; in the experiment on blood (final concentration 150 micromolar), 52 to 66 h; in the experiment on blood (final concentration 300 micromolar), 52 to 66 h. The “time to complete cleavage by thrombin” value on thrombin was 4 h.
